Consider five compounds from patent publication US20260285816A1, “Piperazinyl-Modified Quinazolinyl-Aryl Urea Derivative, And Preparation Method And Use Thereof” (Guangxi Normal University, priority 2025, published 2026).

Usually IC50 stands for the concentration that inhibits the measured activity by half.

Common to all, as to type: cell-based, human
Assay [1] relates to immortalized ureteral epithelial cells (SV-HUC-1). Description: CCK-8 anti-proliferative assay, normal cells SV-HUC-1. The note with it: Homo sapiens, SV-HUC1, normal cells, co-incubated 48 h, read-out: Anti-proliferative activity (IC50 ± standard deviation) SV-HUC-1. On the procedure:
(§1) The obtained quinazolinyl-aryl urea derivatives were screened for compounds with optimal activity using the following method.
(§2) Experimental Procedure for Anti-Proliferative Activity Evaluation: The CCK-8 assay was employed. Cells in logarithmic growth phase were harvested, adjusted to appropriate density, and uniformly seeded into 96-well plates using a multichannel pipette (180 μL cell suspension containing complete medium per well, 5,000 cells/well). Blank control wells (containing basal medium, CCK-8 solution, and DMSO only) were set. Cells were incubated at 37° C. under 5% CO2. After 70% confluency was reached, test compounds (target compounds/positive controls) were added at final concentrations of 1, 2, 4, 6, 8, 12, 16, 24, and 30 μM (3 repeated wells per concentration). Compounds were pre-dissolved in DMSO, sterilized, and diluted with medium before adding 20 μL/well. After co-incubation for designated durations, 10 μL CCK-8 solution was added per well followed by 1-4 h incubation (different cells have different incubation times). […] Inhibition rates were calculated as: (ODcontrol−ODtreatment)/ODcontrol×100%. Median inhibitory concentrations (IC50 values) were derived using Origin v8.0 software.
(Tetrazolium assays rely on reduction of a dye to a coloured formazan, in cell work by metabolically active cells.)

Another assay deals with 5637 cells. Description: CCK-8 anti-proliferative assay, 5637. The note with it: Homo sapiens, co-incubated 48 h, read-out: Anti-proliferative activity (IC50 ± standard deviation) 5637. Put shortly:
(§3)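 Cells seeded at 5,000/well, grown at 37° C, 5% CO2 to 70% confluence, then treated in triplicate with 1-30 μM compound (nine concentrations) for designated times.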

Another assay deals with MG-63 cells. Description: CCK-8 anti-proliferative assay, MG-63. To be noted: Homo sapiens, MG-63, co-incubated 48 h, read-out: Anti-proliferative activity (IC50 ± standard deviation) MG-63. Put shortly:
(§4)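 Cells seeded at 5,000/well were grown at 37° C. under 5% CO2 to 70% confluency, then exposed in triplicate to 1–30 μM compound (1, 2, 4, 6, 8, 12, 16, 24, 30 μM) for designated durations. CCK-8 was added for 1–4 h, OD read at 450 nm, and IC50 derived from inhibition versus control.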

The subject of another assay is A549 cells. Description: CCK-8 anti-proliferative assay, A549. To be noted: Homo sapiens, A549, co-incubated 48 h, read-out: Anti-proliferative activity (IC50 ± standard deviation) A549. The method, boiled down: as §3
Another assay relates to BxPC-3 cells. Description: CCK-8 anti-proliferative assay, BxPC-3. To be noted: Homo sapiens, BXPC-3, co-incubated 48 h, read-out: Anti-proliferative activity (IC50 ± standard deviation) BxPC-3. Put shortly: as §4
A further assay concerns J82 cells. Description: CCK-8 anti-proliferative assay, J82. To be noted: Homo sapiens, J82, co-incubated 48 h, read-out: Anti-proliferative activity (IC50 ± standard deviation) J82. How it is done: as §1, §2
For a further assay, the system named is HeLa cells. The assay can be described thus: CCK-8 anti-proliferative assay, HeLa. To be noted: Homo sapiens, HeLa, co-incubated 48 h, read-out: Anti-proliferative activity (IC50 ± standard deviation) HeLa. How it is done: as §1, §2
The next assay relates to UM-UC-3 cells. The assay can be described thus: CCK-8 anti-proliferative assay, UM-UC-3. To be noted: Homo sapiens, UMUC3, co-incubated 48 h, read-out: Anti-proliferative activity (IC50 ± standard deviation) UM-UC-3. The method, boiled down:
as §3

The test system of another assay is SK-OV-3 cells. Description: CCK-8 anti-proliferative assay, SK-OV-3. The note with it: Homo sapiens, SK-OV-3, co-incubated 48 h, read-out: Anti-proliferative activity (IC50 ± standard deviation) SK-OV-3. The method, boiled down: as §3
Another assay concerns MCF-7 cells. Description: CCK-8 anti-proliferative assay, MCF-7. To be noted: Homo sapiens, MCF7, co-incubated 48 h, read-out: Anti-proliferative activity (IC50 ± standard deviation) MCF-7. Put shortly:
as §3

Another assay has as its system PANC-1 cells. The assay can be described thus: CCK-8 anti-proliferative assay, PANC-1. The note with it: Homo sapiens, PANC-1, co-incubated 48 h, read-out: Anti-proliferative activity (IC50 ± standard deviation) PANC-1. The method, boiled down: as §4
In assay [2] the test system is embryonic lung fibroblasts (WI-38). The assay can be described thus: CCK-8 anti-proliferative assay, normal cells WI-38. The note with it: Homo sapiens, read-out: Anti-proliferative activity (IC50 ± standard deviation) WI-38. The source says:
The obtained quinazolinyl-aryl urea derivatives were screened for compounds with optimal activity using the following method. All cell lines employed in this experiment were of human origin, including: bladder cancer cells: J82, UM-UC-3, T24, 5637, pancreatic cancer cells: BxPC-3, PANC-1, osteosarcoma cells: 143B, MG-63, cervical cancer cells: HeLa, breast cancer cells: MCF-7, NSCLC cells: A549, hepatoblastoma cells: Hep G2, and ovarian cancer cells: SK-OV-3, as well as normal cell lines: immortalized ureteral epithelial cells (SV-HUC-1), embryonic lung fibroblasts (WI-38).
Experimental Procedure for Anti-Proliferative Activity Evaluation: The CCK-8 assay was employed. Cells in logarithmic growth phase were harvested, adjusted to appropriate density, and uniformly seeded into 96-well plates using a multichannel pipette (180 μL cell suspension containing complete medium per well, 5,000 cells/well). Blank control wells (containing basal medium, CCK-8 solution, and DMSO only) were set. Cells were incubated at 37° C. under 5% CO2. After 70% confluency was reached, test compounds (target compounds/positive controls) were added at final concentrations of 1, 2, 4, 6, 8, 12, 16, 24, and 30 μM (3 repeated wells per concentration). Compounds were pre-dissolved in DMSO, sterilized, and diluted with medium before adding 20 μL/well. After co-incubation for designated durations, 10 μL CCK-8 solution was added per well followed by 1-4 h incubation (different cells have different incubation times). The reaction was terminated, and OD (optical density) values at 450 nm were measured using a microplate reader. Inhibition rates were calculated as: (ODcontrol−ODtreatment)/ODcontrol×100%. Median inhibitory concentrations (IC50 values) were derived using Origin v8.0 software.

The test system of another assay is Hep G2 cells. The assay can be described thus: CCK-8 anti-proliferative assay, Hep G2. The note with it: Homo sapiens, HepG2, co-incubated 48 h, read-out: Anti-proliferative activity (IC50 ± standard deviation) Hep G2. Put shortly: as §4
Another assay relates to T24 cells. The assay can be described thus: CCK-8 anti-proliferative assay, T24. The note with it: Homo sapiens, T-24, co-incubated 48 h, read-out: Anti-proliferative activity (IC50 ± standard deviation) T24. Put shortly:
as §4

The next assay concerns 143B cells. Description: CCK-8 anti-proliferative assay, 143B. To be noted: Homo sapiens, 143B, co-incubated 48 h, read-out: Anti-proliferative activity (IC50 ± standard deviation) 143B. The method, boiled down:
as §4

The mark [3] stands for this setting: WI-38, Table 9, co-incubated 48 h.

The structures appear in SMILES notation. Where two headings read alike, the source gives them in different places.

In the case of `COc1cc2ncnc(NCc3cccc(NC(=O)Nc4ccc(F)c(C(F)(F)F)c4)c3)c2cc1OCCCCCCN1CCN(CCN2CCOCC2)CC1` [Compound 8-1q], the concentration for half-maximal inhibition (IC50) in assay [1] (Table 9) stood at 7.61 ± 0.41 µM; in the assay on 5637 cells (Table 6), 5.78 ± 0.69 µM; in the assay on MG-63 cells (Table 7), 5.81 ± 0.63 µM; in the assay with A549 cells (Table 8) it was 10.9 ± 0.67 µM; with BxPC-3 cells (Table 7), 7.78 ± 0.53 µM; with J82 cells (Table 6) it was 4.26 ± 0.31 µM. The IC50 is 6.32 ± 0.37 µM in the assay on HeLa cells (Table 8); 6.25 ± 0.88 µM in the assay with UM-UC-3 cells (Table 6); 8.76 ± 0.74 µM with SK-OV-3 cells (Table 9); 6.64 ± 0.52 µM in the assay with MCF-7 cells (Table 8); 19.5 ± 1.53 µM with PANC-1 cells (Table 7); 7.97 ± 0.63 µM in assay [2] (setting [3]). For the same compound, the figures for the half-maximal inhibitory concentration (IC50) in the assay on Hep G2 cells (Table 8), with T24 cells (Table 6) and in the assay on 143B cells (Table 7) were 7.09 ± 0.35 µM, 6.83 ± 0.87 µM and 4.57 ± 0.44 µM, respectively.

Consider `COc1cc2ncnc(NCc3cccc(NC(=O)Nc4ccc(Cl)c(C(F)(F)F)c4)c3)c2cc1OCCCCCCN1CCN(CCN2CCOCC2)CC1` [Compound 8-1r], for which the IC50 in assay [1] (Table 9) was determined as 7.02 ± 0.53 µM; in the assay with 5637 cells (Table 6), 3.59 ± 0.16 µM; with MG-63 cells (Table 7), 5.31 ± 0.46 µM; with A549 cells (Table 8), 8.62 ± 0.55 µM; with BxPC-3 cells (Table 7) it was 7.39 ± 0.62 µM; with J82 cells (Table 6) it was 6.33 ± 0.61 µM. In addition, the IC50 in the assay with HeLa cells (Table 8) amounted to 5.76 ± 0.57 µM; with UM-UC-3 cells (Table 6), 6.14 ± 0.53 µM; in the assay with SK-OV-3 cells (Table 9), 8.51 ± 0.87 µM; in the assay with MCF-7 cells (Table 8), 4.12 ± 0.15 µM; with PANC-1 cells (Table 7) it was 11.9 ± 0.94 µM; in [2] (setting [3]), 7.89 ± 0.66 µM. The IC50 with Hep G2 cells (Table 8) amounted to 5.59 ± 0.45 µM; in the assay on T24 cells (Table 6) it was 3.91 ± 0.34 µM; with 143B cells (Table 7), 5.41 ± 0.39 µM.

Consider `COc1cc2ncnc(NCc3cccc(NC(=O)Nc4cc(C(F)(F)F)cc(C(F)(F)F)c4)c3)c2cc1OCCCCCCN1CCN(CCN2CCOCC2)CC1` [Compound 8-1s, N-(3-(((7-methoxy-6-((6-(4-(2-morpholinoethyl)piperazin-1-yl)hexyl)oxy)quinazolin-4-yl)amino)methyl)phenyl)-N′-(3,5-bis(trifluoromethyl)phenyl)urea], for which the IC50 amounted to 7.31 ± 0.35 µM in [1] (Table 9); 5.93 ± 0.44 µM in the assay on 5637 cells (Table 6); 7.17 ± 0.52 µM in the assay on MG-63 cells (Table 7); 12.6 ± 0.48 µM in the assay with A549 cells (Table 8); 7.31 ± 0.76 µM in the assay with BxPC-3 cells (Table 7); 5.63 ± 0.54 µM in the assay on J82 cells (Table 6). Further, the IC50 in the assay with HeLa cells (Table 8) was 6.81 ± 0.45 µM; with UM-UC-3 cells (Table 6), 6.72 ± 0.53 µM; with SK-OV-3 cells (Table 9), 7.29 ± 0.66 µM; in the assay on MCF-7 cells (Table 8), 10.3 ± 0.68 µM; in the assay with PANC-1 cells (Table 7) it was 12.7 ± 0.71 µM; in assay [2] (setting [3]), 7.71 ± 0.54 µM. For the same compound, the IC50 in the assay with Hep G2 cells (Table 8) was 4.55 ± 0.47 µM; in the assay with T24 cells (Table 6), 6.95 ± 0.51 µM; with 143B cells (Table 7) it was 4.95 ± 0.69 µM.

Take `COc1cc2ncnc(NCc3cccc(NC(=O)NC4CCCCC4)c3)c2cc1OCCCCCCN1CCN(CCN2CCOCC2)CC1` [Compound 8-1v, N-(3-(((7-Methoxy-6-((6-(4-(2-morpholinoethyl)piperazin-1-yl)hexyl)oxy)quinazolin-4-yl)amino)methyl)phenyl)-N′-cyclohexylurea]: the IC50 in [1] (Table 9) was above 30 µM; in the assay on 5637 cells (Table 6), 11.2 ± 0.97 µM; in the assay with MG-63 cells (Table 7), 15.6 ± 0.92 µM; with A549 cells (Table 8), 16.5 ± 0.77 µM; with BxPC-3 cells (Table 7), 16.8 ± 1.25 µM; in the assay with J82 cells (Table 6), 13.9 ± 0.95 µM. The IC50 is above 30 µM in the assay with HeLa cells (Table 8); 19 ± 0.34 µM in the assay with UM-UC-3 cells (Table 6); above 30 µM with SK-OV-3 cells (Table 9); above 30 µM with MCF-7 cells (Table 8); above 30 µM in the assay on PANC-1 cells (Table 7); 15.4 ± 0.88 µM in assay [2] (setting [3]). In addition, the IC50 with Hep G2 cells (Table 8) worked out at 10.6 ± 0.94 µM; in the assay with T24 cells (Table 6), 15.8 ± 0.89 µM; in the assay on 143B cells (Table 7), 22.4 ± 1.63 µM.

Consider `COc1cc2ncnc(NCc3cccc(NC(=O)Nc4ccccc4)c3)c2cc1OCCCCCCN1CCC(CN2CCN(c3ccccn3)CC2)CC1` [Compound 8-2a, N-(3-(((7-methoxy-6-((6-(4-((4-(pyridin-2-yl)piperazin-1-yl)methyl)piperidin-1-yl)hexyl)oxy)quinazolin-4-yl)amino)methyl)phenyl)-N′-phenylurea], for which the half-inhibitory concentration (IC50) in assay [1] (Table 13) was 26.4 ± 1.69 µM; in the assay on 5637 cells (Table 10), 16.2 ± 0.77 µM; in the assay on MG-63 cells (Table 11), 17.4 ± 1.38 µM; in the assay with A549 cells (Table 13), above 30 µM; in the assay on BxPC-3 cells (Table 11), above 30 µM; in the assay with J82 cells (Table 10), above 30 µM. The IC50 in the assay with HeLa cells (Table 12) was above 30 µM; in the assay with UM-UC-3 cells (Table 10), 25.8 ± 1.81 µM; with SK-OV-3 cells (Table 12), 22.4 ± 1.33 µM; in the assay with MCF-7 cells (Table 12) it was 26.3 ± 1.46 µM; with PANC-1 cells (Table 11), above 30 µM; in assay [2] (WI-38, Table 13, co-incubated 48 h), 17.6 ± 0.72 µM. Moreover, the values for the IC50 in the assay with Hep G2 cells (Table 12), with T24 cells (Table 10) and in the assay on 143B cells (Table 11) were 25.7 ± 1.81 µM, 15.8 ± 0.92 µM and above 30 µM, respectively.
